Data taken from ChEMBL document CHEMBL3991601, “The target landscape of clinical kinase drugs” (Science, 2017).
The source made the active and inactive calls.

Assays:
[1] = target: Citron Rho-interacting kinase (Homo sapiens, UniProt O14578)
[2] = target: T1, Serine/threonine-protein kinase TAO2 (Homo sapiens, UniProt Q9UL54)
T1 sequence (Q9UL54 whole entry): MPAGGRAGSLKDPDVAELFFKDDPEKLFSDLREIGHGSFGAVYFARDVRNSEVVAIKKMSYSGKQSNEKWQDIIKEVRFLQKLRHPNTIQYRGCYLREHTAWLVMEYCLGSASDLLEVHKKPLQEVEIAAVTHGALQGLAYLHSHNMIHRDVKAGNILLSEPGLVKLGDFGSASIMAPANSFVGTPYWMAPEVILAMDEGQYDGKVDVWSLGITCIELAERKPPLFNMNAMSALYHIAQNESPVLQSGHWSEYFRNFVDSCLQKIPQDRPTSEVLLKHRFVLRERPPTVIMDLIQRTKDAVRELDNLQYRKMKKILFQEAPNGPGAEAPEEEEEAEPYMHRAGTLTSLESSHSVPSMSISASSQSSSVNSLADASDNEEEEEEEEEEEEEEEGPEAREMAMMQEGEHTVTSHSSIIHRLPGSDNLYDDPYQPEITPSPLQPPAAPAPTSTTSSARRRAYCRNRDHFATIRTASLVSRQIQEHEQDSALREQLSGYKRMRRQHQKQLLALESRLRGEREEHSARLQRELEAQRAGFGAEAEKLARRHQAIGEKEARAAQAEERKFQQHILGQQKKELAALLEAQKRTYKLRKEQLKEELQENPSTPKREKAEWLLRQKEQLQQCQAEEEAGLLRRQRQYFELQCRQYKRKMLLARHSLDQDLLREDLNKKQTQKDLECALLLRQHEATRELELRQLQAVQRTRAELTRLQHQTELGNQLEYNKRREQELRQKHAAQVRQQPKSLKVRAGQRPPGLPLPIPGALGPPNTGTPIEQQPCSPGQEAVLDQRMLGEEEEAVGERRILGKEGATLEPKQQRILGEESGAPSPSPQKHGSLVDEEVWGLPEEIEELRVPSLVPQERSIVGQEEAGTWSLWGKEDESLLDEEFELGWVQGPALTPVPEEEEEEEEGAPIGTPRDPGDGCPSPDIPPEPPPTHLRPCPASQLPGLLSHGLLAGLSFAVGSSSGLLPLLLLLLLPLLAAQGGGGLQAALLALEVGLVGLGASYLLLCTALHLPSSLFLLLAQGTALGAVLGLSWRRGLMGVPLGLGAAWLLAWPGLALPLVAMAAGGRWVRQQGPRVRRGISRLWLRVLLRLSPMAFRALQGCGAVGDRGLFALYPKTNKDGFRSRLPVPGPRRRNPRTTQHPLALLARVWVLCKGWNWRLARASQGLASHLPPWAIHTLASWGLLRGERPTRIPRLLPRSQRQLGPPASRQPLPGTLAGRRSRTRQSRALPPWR

[3] = target: DnaJ homolog subfamily A member 1 (Homo sapiens, UniProt P31689)
Myosin-14 = Myosin-14 (Homo sapiens, UniProt Q7Z406)
Ephrin type-A receptor 2 = Ephrin type-A receptor 2 (Homo sapiens, UniProt P29317)
[4] = target: AP2-associated protein kinase 1 (Homo sapiens, UniProt Q2M2I8)
DNA topoisomerase 2-beta = DNA topoisomerase 2-beta (Homo sapiens, UniProt Q02880)
[5] = target: BMP-2-inducible protein kinase (Homo sapiens, UniProt Q9NSY1)
[6] = target: NADH dehydrogenase [ubiquinone] 1 alpha subcomplex subunit 13 (Homo sapiens, UniProt Q9P0J0)
[7] = target: Serine/threonine-protein kinase PAK 2 (Homo sapiens, UniProt Q13177)
[8] = target: T2, Dual specificity mitogen-activated protein kinase kinase 6 (Homo sapiens, UniProt P52564)
T2 sequence (P52564 whole entry): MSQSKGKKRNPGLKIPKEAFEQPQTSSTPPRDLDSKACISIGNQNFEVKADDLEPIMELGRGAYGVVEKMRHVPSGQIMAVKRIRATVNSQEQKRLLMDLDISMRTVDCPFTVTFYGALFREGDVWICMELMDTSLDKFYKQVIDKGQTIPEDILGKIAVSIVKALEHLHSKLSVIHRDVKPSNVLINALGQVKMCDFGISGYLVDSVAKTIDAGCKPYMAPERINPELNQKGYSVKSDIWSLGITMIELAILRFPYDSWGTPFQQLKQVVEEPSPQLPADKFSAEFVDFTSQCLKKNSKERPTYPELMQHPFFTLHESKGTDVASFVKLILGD

Deoxycytidine kinase = Deoxycytidine kinase (Homo sapiens, UniProt P27707)
[9] = target: Cyclin-dependent kinase 1 (Homo sapiens, UniProt P06493)
[10] = target: Cyclin-dependent kinase 12 (Homo sapiens, UniProt Q9NYV4)
[11] = target: Cyclin-dependent kinase 3 (Homo sapiens, UniProt Q00526)
Further: in the data inactive means no Kd found up to 30 µM.

Chain of DnaJ homolog subfamily A member 1 (P31689 whole entry): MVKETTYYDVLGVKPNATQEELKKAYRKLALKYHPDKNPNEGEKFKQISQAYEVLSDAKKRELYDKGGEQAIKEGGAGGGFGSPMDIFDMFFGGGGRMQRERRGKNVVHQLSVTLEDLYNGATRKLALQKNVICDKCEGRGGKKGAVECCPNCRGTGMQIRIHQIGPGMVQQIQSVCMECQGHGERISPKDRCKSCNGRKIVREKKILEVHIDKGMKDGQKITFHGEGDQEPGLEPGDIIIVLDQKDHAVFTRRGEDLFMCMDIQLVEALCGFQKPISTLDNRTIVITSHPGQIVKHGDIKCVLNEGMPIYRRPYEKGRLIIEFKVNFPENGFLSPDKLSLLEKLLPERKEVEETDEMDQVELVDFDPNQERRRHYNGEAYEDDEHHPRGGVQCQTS
Chain of Serine/threonine-protein kinase PAK 2 (Q13177 whole entry): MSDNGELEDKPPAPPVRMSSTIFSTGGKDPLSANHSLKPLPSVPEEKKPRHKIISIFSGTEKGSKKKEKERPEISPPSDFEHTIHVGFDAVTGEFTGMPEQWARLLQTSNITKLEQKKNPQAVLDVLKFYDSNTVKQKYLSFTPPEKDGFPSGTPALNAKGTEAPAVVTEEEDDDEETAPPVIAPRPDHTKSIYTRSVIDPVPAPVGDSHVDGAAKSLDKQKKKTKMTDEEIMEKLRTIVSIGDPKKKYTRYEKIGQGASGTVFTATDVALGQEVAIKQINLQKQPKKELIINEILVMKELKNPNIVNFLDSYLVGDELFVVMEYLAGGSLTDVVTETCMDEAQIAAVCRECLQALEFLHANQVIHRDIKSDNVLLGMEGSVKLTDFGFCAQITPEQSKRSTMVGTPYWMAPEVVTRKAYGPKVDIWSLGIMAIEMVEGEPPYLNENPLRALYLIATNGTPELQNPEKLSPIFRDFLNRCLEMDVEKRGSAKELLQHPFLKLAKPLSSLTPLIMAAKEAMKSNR
Chain of Myosin-14 (Q7Z406 whole entry): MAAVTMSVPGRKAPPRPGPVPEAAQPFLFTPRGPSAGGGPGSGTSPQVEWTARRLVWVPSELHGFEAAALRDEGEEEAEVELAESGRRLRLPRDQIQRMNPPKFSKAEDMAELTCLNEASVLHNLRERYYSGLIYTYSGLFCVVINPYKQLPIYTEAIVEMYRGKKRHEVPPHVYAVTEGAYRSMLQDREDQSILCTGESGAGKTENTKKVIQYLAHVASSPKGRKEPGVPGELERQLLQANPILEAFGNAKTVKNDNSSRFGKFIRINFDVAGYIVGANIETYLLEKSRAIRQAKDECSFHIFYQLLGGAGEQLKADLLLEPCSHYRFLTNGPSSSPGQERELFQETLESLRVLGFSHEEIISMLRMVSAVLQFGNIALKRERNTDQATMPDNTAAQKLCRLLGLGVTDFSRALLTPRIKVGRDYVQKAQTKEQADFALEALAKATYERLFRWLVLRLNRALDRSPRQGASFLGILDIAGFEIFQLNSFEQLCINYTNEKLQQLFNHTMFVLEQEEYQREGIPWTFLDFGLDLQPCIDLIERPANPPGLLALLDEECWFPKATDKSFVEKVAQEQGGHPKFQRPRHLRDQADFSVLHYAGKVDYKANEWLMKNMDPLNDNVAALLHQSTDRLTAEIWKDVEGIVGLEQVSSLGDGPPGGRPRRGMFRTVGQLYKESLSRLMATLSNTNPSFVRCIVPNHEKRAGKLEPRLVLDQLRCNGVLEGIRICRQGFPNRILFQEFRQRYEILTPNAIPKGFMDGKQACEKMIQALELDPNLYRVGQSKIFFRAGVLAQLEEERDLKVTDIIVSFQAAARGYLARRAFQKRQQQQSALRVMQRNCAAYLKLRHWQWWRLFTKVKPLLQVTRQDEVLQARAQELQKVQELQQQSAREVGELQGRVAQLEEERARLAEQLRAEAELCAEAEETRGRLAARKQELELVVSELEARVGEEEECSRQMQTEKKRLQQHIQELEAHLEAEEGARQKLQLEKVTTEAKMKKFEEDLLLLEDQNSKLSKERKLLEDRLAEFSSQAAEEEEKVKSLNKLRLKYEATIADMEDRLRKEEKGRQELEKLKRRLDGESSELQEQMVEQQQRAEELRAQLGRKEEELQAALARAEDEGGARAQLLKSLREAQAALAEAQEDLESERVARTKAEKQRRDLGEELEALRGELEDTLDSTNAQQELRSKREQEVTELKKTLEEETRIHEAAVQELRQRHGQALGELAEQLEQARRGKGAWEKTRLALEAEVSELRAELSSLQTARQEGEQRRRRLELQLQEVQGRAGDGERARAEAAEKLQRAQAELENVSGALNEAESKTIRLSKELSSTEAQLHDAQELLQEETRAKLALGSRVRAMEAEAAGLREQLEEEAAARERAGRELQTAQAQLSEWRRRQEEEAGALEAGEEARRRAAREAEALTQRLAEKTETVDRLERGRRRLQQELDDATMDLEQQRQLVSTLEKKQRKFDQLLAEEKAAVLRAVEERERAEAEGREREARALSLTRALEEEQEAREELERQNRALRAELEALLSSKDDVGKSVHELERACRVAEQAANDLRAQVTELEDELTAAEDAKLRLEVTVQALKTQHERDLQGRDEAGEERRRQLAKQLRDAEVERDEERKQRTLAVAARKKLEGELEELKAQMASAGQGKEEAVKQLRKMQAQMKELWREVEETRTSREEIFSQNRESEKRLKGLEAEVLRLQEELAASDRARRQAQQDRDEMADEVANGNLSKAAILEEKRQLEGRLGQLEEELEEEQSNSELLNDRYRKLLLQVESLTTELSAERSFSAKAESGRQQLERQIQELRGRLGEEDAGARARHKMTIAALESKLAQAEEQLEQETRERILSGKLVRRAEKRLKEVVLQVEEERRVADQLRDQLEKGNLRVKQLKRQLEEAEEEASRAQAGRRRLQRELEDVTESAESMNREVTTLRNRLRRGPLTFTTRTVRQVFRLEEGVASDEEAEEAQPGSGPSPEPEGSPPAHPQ
Chain of NADH dehydrogenase [ubiquinone] 1 alpha subcomplex subunit 13 (Q9P0J0 whole entry, one chain of several): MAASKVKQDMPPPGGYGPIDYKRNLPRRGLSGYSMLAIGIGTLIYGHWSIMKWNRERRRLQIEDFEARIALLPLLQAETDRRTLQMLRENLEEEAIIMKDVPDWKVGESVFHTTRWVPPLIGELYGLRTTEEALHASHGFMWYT
Chain of Deoxycytidine kinase (P27707 whole entry): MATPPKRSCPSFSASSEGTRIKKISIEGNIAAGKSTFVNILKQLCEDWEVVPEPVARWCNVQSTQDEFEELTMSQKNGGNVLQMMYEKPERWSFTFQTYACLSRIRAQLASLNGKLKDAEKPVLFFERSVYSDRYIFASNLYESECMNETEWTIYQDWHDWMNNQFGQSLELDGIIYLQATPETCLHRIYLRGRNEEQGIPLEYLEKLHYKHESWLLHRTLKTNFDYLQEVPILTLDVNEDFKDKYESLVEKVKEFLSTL
Chain of Ephrin type-A receptor 2 (P29317 whole entry): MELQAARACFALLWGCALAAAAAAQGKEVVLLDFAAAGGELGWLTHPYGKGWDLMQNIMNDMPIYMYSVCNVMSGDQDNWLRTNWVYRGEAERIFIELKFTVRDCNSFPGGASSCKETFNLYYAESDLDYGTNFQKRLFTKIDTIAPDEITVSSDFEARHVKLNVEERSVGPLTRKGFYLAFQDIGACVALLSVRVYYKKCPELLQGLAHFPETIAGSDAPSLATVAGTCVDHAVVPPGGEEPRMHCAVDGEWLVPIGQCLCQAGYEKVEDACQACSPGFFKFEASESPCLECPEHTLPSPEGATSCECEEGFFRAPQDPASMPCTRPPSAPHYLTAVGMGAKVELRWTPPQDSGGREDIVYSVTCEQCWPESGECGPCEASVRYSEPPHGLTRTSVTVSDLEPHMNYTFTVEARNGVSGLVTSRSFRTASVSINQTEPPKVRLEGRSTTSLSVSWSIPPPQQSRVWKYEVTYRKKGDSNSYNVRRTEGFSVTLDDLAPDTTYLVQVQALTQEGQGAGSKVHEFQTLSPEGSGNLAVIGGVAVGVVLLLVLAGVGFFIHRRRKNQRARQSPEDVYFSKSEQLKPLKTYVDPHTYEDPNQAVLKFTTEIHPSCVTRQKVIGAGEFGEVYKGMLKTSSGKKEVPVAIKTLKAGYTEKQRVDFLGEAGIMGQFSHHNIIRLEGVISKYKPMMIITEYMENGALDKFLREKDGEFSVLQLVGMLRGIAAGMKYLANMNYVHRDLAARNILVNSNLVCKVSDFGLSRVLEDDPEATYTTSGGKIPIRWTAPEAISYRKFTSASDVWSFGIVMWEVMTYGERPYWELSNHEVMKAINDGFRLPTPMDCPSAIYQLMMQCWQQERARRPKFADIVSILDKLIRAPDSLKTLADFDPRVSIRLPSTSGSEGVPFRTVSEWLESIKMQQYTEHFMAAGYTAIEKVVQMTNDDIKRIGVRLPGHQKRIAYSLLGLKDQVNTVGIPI
Chain of Cyclin-dependent kinase 3 (Q00526 whole entry): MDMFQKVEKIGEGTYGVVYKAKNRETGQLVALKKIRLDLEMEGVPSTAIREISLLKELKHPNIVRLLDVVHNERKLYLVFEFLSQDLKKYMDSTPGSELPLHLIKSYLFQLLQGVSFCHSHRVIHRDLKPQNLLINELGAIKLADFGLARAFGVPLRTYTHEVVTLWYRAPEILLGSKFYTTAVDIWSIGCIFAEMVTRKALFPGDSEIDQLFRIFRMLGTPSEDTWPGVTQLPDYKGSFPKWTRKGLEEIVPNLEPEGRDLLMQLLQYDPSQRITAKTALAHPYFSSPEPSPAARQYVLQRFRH
Chain of Cyclin-dependent kinase 1 (P06493 whole entry): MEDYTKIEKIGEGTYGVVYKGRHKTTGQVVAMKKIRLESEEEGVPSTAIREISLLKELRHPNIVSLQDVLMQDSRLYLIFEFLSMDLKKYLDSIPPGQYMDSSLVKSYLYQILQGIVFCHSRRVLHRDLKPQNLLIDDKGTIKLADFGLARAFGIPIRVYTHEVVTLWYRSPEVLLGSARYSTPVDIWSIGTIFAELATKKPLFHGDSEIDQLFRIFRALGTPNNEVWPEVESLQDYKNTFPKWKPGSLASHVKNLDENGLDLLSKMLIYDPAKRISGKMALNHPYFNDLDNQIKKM

Row | Structure (SMILES) | Kd [1] | Kd [2] | Kd [3] | Kd (Myosin-14) | Kd (Ephrin type-A receptor 2) | Kd [4] | Kd (DNA topoisomerase 2-beta) | Kd [5] | Kd [6] | Kd [7] | Kd [8] | Kd (Deoxycytidine kinase) | Kd [9] | Kd [10] | Kd [11]
1 | CCc1cnn2c(NCc3ccc[n+]([O-])c3)cc(N3CCCC[C@H]3CCO)nc12 [DINACICLIB] | > 30 µM (inactive) | 2.23 µM (active) | > 30 µM (inactive) | > 30 µM (inactive) | > 30 µM (inactive) | > 30 µM (inactive) | > 30 µM (inactive) | > 30 µM (inactive) | > 30 µM (inactive) | > 30 µM (inactive) | > 30 µM (inactive) | > 30 µM (inactive) |  |  | 
2 | C[C@@H](Nc1cc(F)cc(F)c1)c1cc(C(=O)N(C)C)cc2c(=O)cc(N3CCOCC3)oc12 [AZD-8186] | > 30 µM (inactive) | > 30 µM (inactive) | > 30 µM (inactive) | > 30 µM (inactive) | > 30 µM (inactive) | > 30 µM (inactive) | 0.936 µM (active) | > 30 µM (inactive) | > 30 µM (inactive) |  | > 30 µM (inactive) | > 30 µM (inactive) | > 30 µM (inactive) | > 30 µM (inactive) | > 30 µM (inactive)
3 | CNC(=O)c1ccc(-c2cnc3ncc(Cc4ccc5ncccc5c4)n3n2)cc1F [CAPMATINIB] | > 30 µM (inactive) | > 30 µM (inactive) | > 30 µM (inactive) | > 30 µM (inactive) | > 30 µM (inactive) | > 30 µM (inactive) | > 30 µM (inactive) | > 30 µM (inactive) |  | > 30 µM (inactive) | > 30 µM (inactive) | > 30 µM (inactive) | > 30 µM (inactive) | > 30 µM (inactive) | 
4 | Cn1cc(-c2ccc(F)c(C(F)(F)F)c2)nc1C1CCN(c2ncnc3[nH]ncc23)CC1 [LY-2584702] | > 30 µM (inactive) | > 30 µM (inactive) | > 30 µM (inactive) | > 30 µM (inactive) | > 30 µM (inactive) | > 30 µM (inactive) | > 30 µM (inactive) | > 30 µM (inactive) | > 30 µM (inactive) |  | > 30 µM (inactive) | > 30 µM (inactive) | > 30 µM (inactive) | > 30 µM (inactive) | > 30 µM (inactive)
5 | Cc1cn(-c2cc(NC(=O)c3ccc(C)c(Nc4nccc(-c5cccnc5)n4)c3)cc(C(F)(F)F)c2)cn1 [NILOTINIB] |  |  | > 30 µM (inactive) | > 30 µM (inactive) |  |  | > 30 µM (inactive) |  | > 30 µM (inactive) |  |  | > 30 µM (inactive) | > 30 µM (inactive) | > 30 µM (inactive) | 
6 | Cc1cc(Nc2cc(N3CCN(C)CC3)nc(/C=C/c3ccccc3)n2)n[nH]1 [ENMD-2076] | > 30 µM (inactive) |  | > 30 µM (inactive) | > 30 µM (inactive) |  |  | > 30 µM (inactive) | 1.49 µM (active) | > 30 µM (inactive) | > 30 µM (inactive) | > 30 µM (inactive) | > 30 µM (inactive) |  | > 30 µM (inactive) | > 30 µM (inactive)
7 | O=C(Nc1cccc(Cl)c1)Nc1ncc(CCNc2ncnc3ccsc23)s1 [SNS-314] |  | > 30 µM (inactive) | > 30 µM (inactive) | > 30 µM (inactive) |  | > 30 µM (inactive) | > 30 µM (inactive) | > 30 µM (inactive) | > 30 µM (inactive) | > 30 µM (inactive) | > 30 µM (inactive) | > 30 µM (inactive) |  | > 30 µM (inactive) | > 30 µM (inactive)
8 | Cc1ccc(S(=O)(=O)Nc2nc3ccccc3nc2Nc2ccc3nsnc3c2)cc1 | > 30 µM (inactive) | > 30 µM (inactive) | > 30 µM (inactive) |  | > 30 µM (inactive) | > 30 µM (inactive) | > 30 µM (inactive) | > 30 µM (inactive) | > 30 µM (inactive) | > 30 µM (inactive) | > 30 µM (inactive) | > 30 µM (inactive) | > 30 µM (inactive) | > 30 µM (inactive) | > 30 µM (inactive)
9 | Cc1nc(N)sc1-c1ccnc(Nc2ccc(N3CCOCC3)cc2)n1 [CYC-116] | 1.1 µM (active) |  | > 30 µM (inactive) | > 30 µM (inactive) |  | 0.006 µM (active) | > 30 µM (inactive) | 0.007 µM (active) | > 30 µM (inactive) | > 30 µM (inactive) | > 30 µM (inactive) | > 30 µM (inactive) |  | > 30 µM (inactive) | 
10 | COc1cc2nccc(Oc3ccc(NC(=O)NC4CC4)c(Cl)c3)c2cc1C(N)=O [LENVATINIB] | > 30 µM (inactive) | > 30 µM (inactive) | > 30 µM (inactive) | > 30 µM (inactive) | > 30 µM (inactive) | > 30 µM (inactive) | > 30 µM (inactive) | > 30 µM (inactive) | > 30 µM (inactive) | > 30 µM (inactive) | > 30 µM (inactive) | > 30 µM (inactive) | > 30 µM (inactive) | > 30 µM (inactive) | 
11 | CCn1c(-c2nonc2N)nc2c(C#CC(C)(C)O)ncc(OC[C@H]3CCCNC3)c21 [GSK-690693] |  |  | > 30 µM (inactive) | > 30 µM (inactive) |  |  | > 30 µM (inactive) |  | > 30 µM (inactive) |  |  | > 30 µM (inactive) | > 30 µM (inactive) | > 30 µM (inactive) | 
12 | C1=C/COCc2cc(ccc2OCCN2CCCC2)Nc2nccc(n2)-c2cccc(c2)COC/1 [PACRITINIB] | > 30 µM (inactive) | 3.37 µM (active) | > 30 µM (inactive) | > 30 µM (inactive) | > 30 µM (inactive) | 0.042 µM (active) | > 30 µM (inactive) | 0.039 µM (active) | > 30 µM (inactive) |  | > 30 µM (inactive) | > 30 µM (inactive) | > 30 µM (inactive) | > 30 µM (inactive) | > 30 µM (inactive)
13 | CN1CCN(c2ccc3nc(-c4c(N)c5c(F)cccc5[nH]c4=O)[nH]c3c2)CC1 [DOVITINIB] |  |  | > 30 µM (inactive) | > 30 µM (inactive) |  |  | > 30 µM (inactive) |  | > 30 µM (inactive) |  |  | > 30 µM (inactive) | > 30 µM (inactive) | > 30 µM (inactive) | 
14 | O=C(c1ccc(F)c(F)c1Nc1ccc(I)cc1F)N1CC(O)([C@@H]2CCCCN2)C1 [COBIMETINIB] | > 30 µM (inactive) | > 30 µM (inactive) | > 30 µM (inactive) | > 30 µM (inactive) | > 30 µM (inactive) | > 30 µM (inactive) | > 30 µM (inactive) | > 30 µM (inactive) | > 30 µM (inactive) | > 30 µM (inactive) | > 30 µM (inactive) | > 30 µM (inactive) | > 30 µM (inactive) | > 30 µM (inactive) | 
15 | Cc1cc(-c2cc(O)ccc2Cl)cc2nnc(Nc3ccc(OCCN4CCCC4)cc3)nc12 | 0.003 µM (active) | > 30 µM (inactive) | > 30 µM (inactive) |  | 0.001 µM (active) | > 30 µM (inactive) | > 30 µM (inactive) | > 30 µM (inactive) | > 30 µM (inactive) | > 30 µM (inactive) | > 30 µM (inactive) | > 30 µM (inactive) | > 30 µM (inactive) | > 30 µM (inactive) | > 30 µM (inactive)
